Consider 11 molecules from PubChem BioAssay (NCI).

Some test systems named below: ACHN renal; NCI-H460 lung; HOP-92 NSCLC; KM12 colon; COLO 205 colon; HL-60(TB) leukemia; MCF7 breast; M14 melanoma; TK-10 renal; RXF 393 renal.
Holding throughout (experiment): NCI tumour cell line growth inhibition, 48 h

Several values for one entry are separate records, joined by “and”; a condition that tells them apart may be missing. Identical values can stand only once.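 48-hour exposure; five concentrations; linearly interpolated endpoints. The concentration for 50% growth inhibition is given as GI50. TGI marks complete inhibition of growth.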

As for `CCOc1cc2c(Cl)ncnc2c(OCC)c1OCC`, the GI50 with ACHN renal is 14.1 µM; in the assay with NCI-H460 lung it was 5.21 µM; with HOP-92 NSCLC it was 3.67 µM; with KM12 colon it was 4.96 µM; in the assay with COLO 205 colon, 12.2 µM; in the assay with HL-60(TB) leukemia, 2.35 µM. The GI50 with MCF7 breast is 2.3 µM; in the assay with M14 melanoma it was 6.24 µM; in the assay with TK-10 renal, 26.9 µM; with RXF 393 renal, 7.74 µM. Further, the TGI in the assay on ACHN renal is 27.1 µM; in the assay with NCI-H460 lung, 17.7 µM; in the assay on HOP-92 NSCLC, 14.2 µM; in the assay with KM12 colon, 16.4 µM; in the assay on COLO 205 colon, 25.5 µM; with HL-60(TB) leukemia it was 15.5 µM. Further, the TGI with MCF7 breast is 7.55 µM; in the assay on M14 melanoma, 20.1 µM; in the assay on TK-10 renal it was over 76.2 µM; in the assay with RXF 393 renal it was 22.1 µM.
Regarding `C=C1C(=O)O[C@H]2[C@H]1CC/C(COC(=O)c1ccc3ccccc3c1)=C\CC[C@@]1(C)O[C@@H]21`, the GI50 in the assay with ACHN renal was 1.1 µM; in the assay with NCI-H460 lung, 1.69 µM; in the assay on HOP-92 NSCLC it was 0.301 µM; in the assay with KM12 colon, 1.48 µM; in the assay on COLO 205 colon, 1.36 µM; in the assay with HL-60(TB) leukemia, 0.849 µM. In addition, the GI50 with MCF7 breast is 0.457 µM; in the assay with M14 melanoma it was 1.13 µM; with TK-10 renal it was 1.52 µM; with RXF 393 renal, 0.286 µM. For the same molecule, the TGI was 2.32 µM in the assay on ACHN renal; 3.75 µM in the assay with NCI-H460 lung; 1.81 µM with HOP-92 NSCLC; 3.16 µM in the assay with KM12 colon; 2.94 µM with COLO 205 colon; 3.83 µM with HL-60(TB) leukemia. The TGI with MCF7 breast stood at 2.52 µM; in the assay on M14 melanoma, 2.68 µM; in the assay with TK-10 renal, 2.85 µM; in the assay on RXF 393 renal, 1.48 µM.
For the molecule `Cn1c(=O)c2[nH]c(SCc3ccccn3)nc2n(C)c1=S`, the TGI in the assay on ACHN renal, with NCI-H460 lung, in the assay on HOP-92 NSCLC, in the assay with KM12 colon, in the assay on COLO 205 colon and in the assay on HL-60(TB) leukemia was over 100 µM in each case. Also, the TGI in the assay with MCF7 breast, with M14 melanoma, in the assay with TK-10 renal and in the assay with RXF 393 renal was over 100 µM each time.
Turning to `COc1ccc(-c2cc(=O)c3ccc(O)cc3o2)cc1OC`, the TGI in the assay on ACHN renal, in the assay on NCI-H460 lung, in the assay with HOP-92 NSCLC, in the assay with KM12 colon, in the assay on COLO 205 colon and with HL-60(TB) leukemia was over 100 µM throughout. Further, the TGI is over 100 µM in the assay on MCF7 breast, over 100 µM with M14 melanoma, over 100 µM in the assay on TK-10 renal and 38.6 µM with RXF 393 renal.
In the case of `COc1cc2c(c(O)c1Br)C(=O)c1c(O)cc(C[C@H](C)O)cc1[C@H]2[C@H]1c2cc(C[C@H](C)O)cc(O)c2C(=O)c2c1cc(OC)c(Br)c2O`, the GI50 with ACHN renal was 2.38 µM and 10.5 µM; in the assay on NCI-H460 lung, 2.76 µM and 5.27 µM; with HOP-92 NSCLC, 5.31 µM and 9.42 µM; with KM12 colon, 5.96 µM and 26.4 µM; in the assay with COLO 205 colon, 2.32 µM and 6.74 µM; in the assay with HL-60(TB) leukemia, 3.28 µM and 17.4 µM. Moreover, the GI50 in the assay on MCF7 breast is 2.44 µM and 3.58 µM; in the assay with M14 melanoma, 11.4 µM and 20.9 µM; in the assay with TK-10 renal, 13.8 µM and 31.4 µM; in the assay on RXF 393 renal, 2.59 µM and 2.72 µM. The TGI is 9.27 µM and 23.1 µM with ACHN renal; 21.4 µM and 19.4 µM in the assay with NCI-H460 lung; 32.3 µM and 39.6 µM with HOP-92 NSCLC; 37.9 µM and 82.4 µM in the assay on KM12 colon; 9.21 µM and 24.9 µM in the assay with COLO 205 colon; 28 µM and 48.5 µM in the assay with HL-60(TB) leukemia. The TGI with MCF7 breast is 67.5 µM and > 100 µM; in the assay on M14 melanoma, 45.8 µM and > 100 µM; in the assay on TK-10 renal, 67.5 µM and > 100 µM; in the assay with RXF 393 renal it was 22 µM and 9.33 µM.
Take `Cn1c2ccccc2c2c(-c3ccccc3)[n+]3ccncc3nc21`: the GI50 with ACHN renal is over 100 µM; in the assay on NCI-H460 lung it was over 100 µM; in the assay with HOP-92 NSCLC it was 96.6 µM; in the assay with KM12 colon, 74.9 µM; with COLO 205 colon, 29.5 µM; in the assay with HL-60(TB) leukemia, over 100 µM. Moreover, the GI50 in the assay with MCF7 breast is 63.6 µM; in the assay with M14 melanoma it was over 100 µM; in the assay on TK-10 renal, over 100 µM; in the assay on RXF 393 renal, over 100 µM. Besides, the TGI in the assay on ACHN renal, with NCI-H460 lung, in the assay with HOP-92 NSCLC, with KM12 colon, in the assay with COLO 205 colon and in the assay with HL-60(TB) leukemia was over 100 µM in each case. For the same molecule, the TGI in the assay with MCF7 breast, with M14 melanoma, with TK-10 renal and in the assay on RXF 393 renal was over 100 µM each time.
As for `CC(=O)OC[C@]1(C)C=C2C(=O)[C@](C)(O)C3(CC3)C(C)=C2[C@H]1O`, the GI50 in the assay with ACHN renal is 0.0221 µM; in the assay with NCI-H460 lung, 0.0282 µM; with HOP-92 NSCLC, 0.148 µM; in the assay with KM12 colon it was 0.191 µM; with COLO 205 colon, 0.11 µM; with HL-60(TB) leukemia it was 0.0861 µM. Further, the GI50 with MCF7 breast is 0.0273 µM; in the assay on M14 melanoma, 0.0899 µM; with TK-10 renal, 0.233 µM; with RXF 393 renal it was 0.0612 µM. Further, the TGI was 0.0501 µM with ACHN renal; 0.0844 µM in the assay with NCI-H460 lung; 0.623 µM in the assay on HOP-92 NSCLC; over 34.7 µM with KM12 colon; 0.308 µM in the assay with COLO 205 colon; 0.852 µM with HL-60(TB) leukemia. Also, the TGI with MCF7 breast is 15.5 µM; in the assay on TK-10 renal it was 2.99 µM; in the assay on RXF 393 renal it was 0.199 µM.
`Oc1ccc2ccccc2c1N=Nc1nccs1`: the GI50 is 0.27 µM in the assay on ACHN renal; 0.839 µM in the assay with NCI-H460 lung; 0.389 µM in the assay with HOP-92 NSCLC; 0.629 µM in the assay on KM12 colon; 1.6 µM in the assay with COLO 205 colon; 0.267 µM in the assay with HL-60(TB) leukemia. In addition, the GI50 is 0.471 µM with MCF7 breast, 2.97 µM with M14 melanoma, 8.28 µM in the assay with TK-10 renal and 3.33 µM in the assay on RXF 393 renal. The TGI was 14 µM in the assay with ACHN renal; over 100 µM in the assay on NCI-H460 lung; over 48.8 µM in the assay on HOP-92 NSCLC; 19.9 µM in the assay with KM12 colon; 13.6 µM in the assay with COLO 205 colon; over 100 µM in the assay on HL-60(TB) leukemia. For the same molecule, the TGI in the assay on MCF7 breast is 16.7 µM; in the assay on M14 melanoma it was 18.3 µM; in the assay with TK-10 renal, 22.2 µM; in the assay with RXF 393 renal it was over 59.2 µM.
Take `O=C(/C(Br)=C/c1ccccc1)c1ccccc1`: the GI50 with ACHN renal is 1.22 µM; in the assay on NCI-H460 lung, 17.8 µM; with HOP-92 NSCLC, 1.87 µM; in the assay with KM12 colon, 7.54 µM; in the assay with COLO 205 colon it was 1.09 µM; in the assay on HL-60(TB) leukemia it was 2.22 µM. The GI50 was 4.79 µM with MCF7 breast, 1.36 µM in the assay with M14 melanoma, 3.38 µM with TK-10 renal and 1.43 µM in the assay with RXF 393 renal. The TGI in the assay with ACHN renal is 2.48 µM; in the assay on NCI-H460 lung, 38 µM; in the assay with HOP-92 NSCLC, 4.28 µM; in the assay with KM12 colon it was 21.4 µM; in the assay with COLO 205 colon it was 2.41 µM; in the assay on HL-60(TB) leukemia, 6.47 µM. Further, the TGI is 52.9 µM with MCF7 breast, 3.23 µM in the assay with M14 melanoma, 14.6 µM with TK-10 renal and 2.85 µM with RXF 393 renal.
In the case of `CC(C)c1nc(CN(C)C(=O)N[C@H](C(=O)N[C@@H](Cc2ccccc2)C[C@H](O)[C@H](Cc2ccccc2)NC(=O)OCc2cncs2)C(C)C)cs1`, the GI50 was 29.1 µM in the assay with ACHN renal; 17.5 µM with NCI-H460 lung; 20.8 µM with HOP-92 NSCLC; 23.1 µM in the assay on KM12 colon; 17.6 µM with COLO 205 colon; 12.2 µM in the assay with HL-60(TB) leukemia. Besides, the GI50 in the assay on MCF7 breast was 21 µM; with M14 melanoma, 18 µM; in the assay with TK-10 renal it was 36.6 µM; in the assay with RXF 393 renal, 17.7 µM. Further, the TGI amounted to 82.3 µM in the assay with ACHN renal; 55.7 µM in the assay on NCI-H460 lung; 49.5 µM in the assay on HOP-92 NSCLC; 56.7 µM in the assay on KM12 colon; 38.2 µM with COLO 205 colon; 36.9 µM with HL-60(TB) leukemia. The TGI in the assay on MCF7 breast is 64.9 µM; in the assay with M14 melanoma, 41.7 µM; in the assay with TK-10 renal it was over 92.6 µM; in the assay on RXF 393 renal, 35.8 µM.
Turning to `Cc1ccc(NC(=O)c2cccc(N(C)C)c2)cc1NC(=O)c1ccc(O)cc1`, the GI50 is over 63.6 µM in the assay with ACHN renal; 45.2 µM with NCI-H460 lung; over 52.7 µM with HOP-92 NSCLC; 54.9 µM in the assay with KM12 colon; over 64.7 µM with COLO 205 colon; 46.3 µM in the assay on HL-60(TB) leukemia. For the same molecule, the GI50 in the assay with MCF7 breast is 52 µM; with M14 melanoma it was over 64.6 µM; in the assay with TK-10 renal, over 70 µM; with RXF 393 renal it was 38 µM. In addition, the TGI in the assay on ACHN renal, with NCI-H460 lung, in the assay on HOP-92 NSCLC, with KM12 colon, with COLO 205 colon and with HL-60(TB) leukemia was over 100 µM each time. Further, the TGI in the assay on MCF7 breast is over 100 µM; with M14 melanoma it was over 100 µM; in the assay on TK-10 renal, over 100 µM; in the assay on RXF 393 renal, over 66.1 µM.
